One data set addresses T1, mouse GLP2 receptor (Mus musculus, UniProt Q5IXF8).
T1 construct: expressed in transfected cells; host or cells: HEK cells, transient transfection with GeneJuice
T1 sequence (Q5IXF8 1-512): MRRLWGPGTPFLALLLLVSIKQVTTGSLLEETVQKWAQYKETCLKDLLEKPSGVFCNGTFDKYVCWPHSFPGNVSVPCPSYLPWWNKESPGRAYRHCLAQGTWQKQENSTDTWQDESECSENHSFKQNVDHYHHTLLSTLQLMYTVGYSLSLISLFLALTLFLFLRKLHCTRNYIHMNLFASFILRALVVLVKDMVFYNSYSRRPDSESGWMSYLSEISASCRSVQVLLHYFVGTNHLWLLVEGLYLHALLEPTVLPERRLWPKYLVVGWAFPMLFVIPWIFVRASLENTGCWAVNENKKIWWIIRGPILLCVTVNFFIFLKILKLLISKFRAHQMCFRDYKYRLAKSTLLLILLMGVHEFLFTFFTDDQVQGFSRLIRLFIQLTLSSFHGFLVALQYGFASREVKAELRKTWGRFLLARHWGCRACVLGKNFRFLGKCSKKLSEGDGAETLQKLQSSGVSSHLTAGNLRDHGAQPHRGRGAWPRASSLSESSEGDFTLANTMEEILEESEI
Kind of data set: cAMP accumulation assay, functional agonism of mouse GLP2 receptor. The class given is cell-based. Particulars: HEK cells transiently transfected with mouse GLP2 receptor, HTRF cAMP; for Emax: HEK293, read-out: Mouse GLP-2R agonist cAMP Emax. The gist of the method:
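pEC50 values come from four-parameter fits of HTRF cAMP signal, read after lysis and 1 h RT incubation. Compounds were incubated 45 min at 37 °C with previously frozen, transiently transfected HEK cells (8000/well) in HBSS containing 0.5 mM IBMX.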
(In general: Changes in cAMP serve as a functional read-out for many G protein-coupled receptors.)

Data set [1] can be described thus: Stability of peptides in Fasted-State Simulated Gastric Fluid (FaSSGF). The class given is in vitro ADME. To be noted: FaSSGF with 0.1 mg/ml pepsin; t=30 mins, 37° C., pH 1.6, 0.1 mg/ml pepsin.
Experimental: Stability of peptides was tested in Fasted-State Simulated gastric Fluid (FaSSGF) prepared according to manufacturer's protocol (Biorelevant, art. no. FFF01). […] FaSSGF was pre-incubated for 15 min at 37° C. and spiked with test and reference item working solutions. Experiments were conducted in duplicate in a non-serial manner. The total incubation volume per replicate was 150 μl. […] All samples and calibration standards (prepared in FaSSGF) were precipitated by addition of 300 μl precipitant (ACN / 2% acetic acid / 0.2% HFBA, (precipitation regent, PR)) containing internal standards (ISTD) to 150 μl sample. After incubation for 1 h at room temperature all samples were centrifuged for 10 min at 2,200×g (room temperature).
The target in the next data set is T2, human GLP1 receptor (Homo sapiens, UniProt P43220).
T2 construct: expressed in transfected cells; host or cells: HEK cells, BacMam virus transduction
T2 sequence (P43220 24-463): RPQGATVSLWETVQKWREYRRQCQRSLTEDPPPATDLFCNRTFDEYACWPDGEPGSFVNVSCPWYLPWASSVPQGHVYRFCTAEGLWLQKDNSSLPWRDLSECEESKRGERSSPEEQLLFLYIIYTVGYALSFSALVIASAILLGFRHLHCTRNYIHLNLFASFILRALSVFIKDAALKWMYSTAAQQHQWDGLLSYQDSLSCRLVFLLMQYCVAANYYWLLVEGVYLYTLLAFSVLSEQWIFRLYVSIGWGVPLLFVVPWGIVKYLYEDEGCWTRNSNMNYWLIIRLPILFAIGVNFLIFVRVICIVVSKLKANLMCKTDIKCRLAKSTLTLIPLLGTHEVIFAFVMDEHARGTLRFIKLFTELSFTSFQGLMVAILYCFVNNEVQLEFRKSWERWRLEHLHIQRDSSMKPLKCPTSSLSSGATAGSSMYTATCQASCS
The data set is described as follows: cAMP accumulation assay, functional agonism of human GLP1 receptor. The class given is cell-based. To be noted: HEK cells infected with human GLP1 receptor BacMam virus, HTRF cAMP; for Emax: HEK293, read-out: Human GLP-1R agonist cAMP Emax. Summed up: (§1)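 cAMP read by HTRF detection reagents in lysis buffer following 45 min agonist exposure at 37 °C. Cells: frozen HEK transduced for 24 h with GLP1 or GLP2 receptor BacMam, suspended in HBSS plus 0.5 mM IBMX.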

A short description of data set [2]: Stability of peptides in Fasted-State Simulated Intestinal Fluid (FaSSIF). The class given is in vitro ADME. Particulars: FaSSIF with 10 mg/ml pancreatin, 37° C.
In a further data set the target is T3, human GLP2 receptor (Homo sapiens, UniProt O95838).
T3 construct: expressed in transfected cells; host or cells: HEK cells, BacMam virus transduction
T3 sequence (O95838 1-553): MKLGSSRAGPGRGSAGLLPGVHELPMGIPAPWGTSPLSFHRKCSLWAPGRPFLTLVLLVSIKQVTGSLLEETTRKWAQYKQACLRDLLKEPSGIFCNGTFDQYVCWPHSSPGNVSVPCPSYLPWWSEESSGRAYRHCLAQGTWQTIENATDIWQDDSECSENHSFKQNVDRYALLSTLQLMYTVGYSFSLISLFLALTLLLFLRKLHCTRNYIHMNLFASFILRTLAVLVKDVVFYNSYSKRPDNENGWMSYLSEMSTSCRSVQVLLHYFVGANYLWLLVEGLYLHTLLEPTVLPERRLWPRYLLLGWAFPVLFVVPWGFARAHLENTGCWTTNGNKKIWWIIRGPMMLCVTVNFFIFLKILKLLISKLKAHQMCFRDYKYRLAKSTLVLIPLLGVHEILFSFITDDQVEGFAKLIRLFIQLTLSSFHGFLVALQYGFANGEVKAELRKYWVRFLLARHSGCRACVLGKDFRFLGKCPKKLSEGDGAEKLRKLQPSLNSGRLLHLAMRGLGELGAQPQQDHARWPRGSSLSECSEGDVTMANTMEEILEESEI
The data set is described as follows: cAMP accumulation assay, functional agonism of human GLP2 receptor. The class given is cell-based. To be noted: HEK cells infected with human GLP2 receptor BacMam virus, HTRF cAMP; for Emax: HEK293, read-out: Human GLP-2R agonist cAMP Emax. Summed up:
as §1

Data set [3] is described as follows: Stability of peptides in rat intestinal fluid (ratIF). To be noted: Sprague Dawley, undiluted rat small intestinal fluid (ratIF).

Positions of bridges follow the written chain, without caps; N, C: chain ends. Non-standard residues stand in square brackets, D forms with d. Residues, ends and D or L forms follow the SMILES beside them. αMeL = CC(C)C[C@](C)(N)C(=O)O; Nle = CCCC[C@H](N)C(=O)O; Aib = CC(C)(N)C(=O)O

Usually Emax stands for the maximal effect, on the per cent scale that the assay sets. One may read the fraction remaining as the share of the starting amount still present when the sample was taken. In the case of `CCCC[C@H](NC(=O)[C@H](CCC(=O)O)NC(=O)[C@@H]1CC(=O)NCCCC[C@H](NC(=O)[C@H](CC(=O)O)NC(=O)C(C)(C)NC(=O)[C@@H](N)Cc2c[nH]cn2)C(=O)N[C@@H](CO)C(=O)N[C@@H](Cc2ccccc2)C(=O)N[C@@H](CO)C(=O)N1)C(=O)N[C@H](Cc1ccccc1)C(=O)N[C@H](C(=O)N[C@@](C)(CC(C)C)C(=O)N[C@@H](CC(C)C)C(=O)N[C@@H](CC(=O)O)C(=O)N[C@H]1CCC(=O)NCCCC[C@@H](C(=O)N[C@@H](CC(=O)O)C(=O)N[C@@H](Cc2ccccc2)C(=O)N[C@H](C(=O)N[C@H]2CCC(=O)NCCCC[C@@H](C(=O)N[C@H](C(=O)N[C@@H](CCCCN)C(=O)N3CCC[C@H]3C(N)=O)[C@@H](C)O)NC(=O)[C@H]([C@@H](C)CC)NC(=O)[C@H](CC(C)C)NC(=O)[C@H](Cc3c[nH]c4ccccc34)NC2=O)[C@@H](C)CC)NC(=O)[C@H](C)NC(=O)[C@H](C)NC(=O)[C@H](CCCCN)NC1=O)[C@@H](C)O` [Example 30] (H-H[Aib]DKSFSDE[Nle][dF]T[αMeL]LDEKAAKDFIEWLIKTKP-NH2; lactam 4-8, 16-20, 24-28; N-terminus and C-terminus assumed), the Emax on mouse GLP2 receptor turned out to be 101%; on human GLP1 receptor it was 96.7%; on human GLP2 receptor, 104%. The share remaining at 0.5 h in data set [1] was 100%; in data set [2] (t=30 mins, pH 6.5, 10 mg/ml pancreatin), 51.1%.
For `CCCC[C@H](NC(=O)[C@H](CCC(=O)O)NC(=O)[C@H](CC(=O)O)NC(=O)[C@H](CO)NC(=O)[C@H](Cc1ccccc1)NC(=O)[C@H](CO)NC(=O)CNC(=O)[C@H](CC(=O)O)NC(=O)C(C)(C)NC(=O)[C@@H](N)Cc1c[nH]cn1)C(=O)N[C@H]1CC(=O)NCCCC[C@@H](C(=O)N[C@@H](CC(C)C)C(=O)N[C@@H](CCCCN)C(=O)N[C@@H](C)C(=O)N[C@@H](C)C(=O)N[C@@H](CCCCN)C(=O)N[C@@H](CC(=O)O)C(=O)N[C@@H](Cc2ccccc2)C(=O)N[C@H](C(=O)N[C@@H](CC(N)=O)C(=O)N[C@@H](Cc2c[nH]c3ccccc23)C(=O)N[C@@H](CC(C)C)C(=O)N[C@H](C(=O)N[C@@H](CCC(N)=O)C(=O)N[C@H]2CCCCNC(=O)CC[C@@H](C(N)=O)NC(=O)[C@H]([C@@H](C)O)NC(=O)[C@H]([C@@H](C)CC)NC(=O)[C@H](CCCCN)NC2=O)[C@@H](C)CC)[C@@H](C)CC)NC(=O)[C@H](CC(C)C)NC(=O)[C@H]([C@@H](C)CC)NC(=O)[C@H]([C@@H](C)O)NC1=O` [Example 112] (H-H[Aib]DGSFSDE[Nle]DTILKLKAAKDFINWLIQKKITE-NH2; lactam 11-15, 29-33 (inferred); C-terminus assumed), the Emax was found to be 99.7% at mouse GLP2 receptor, 92.6% at human GLP1 receptor and 102% on human GLP2 receptor. The EC50 is 6.31 nM on mouse GLP2 receptor (read-out: Mouse GLP-2R agonist cAMP pEC50 (converted)), 10 nM at human GLP1 receptor (read-out: Human GLP-1R agonist cAMP pEC50 (converted)) and 0.158 nM on human GLP2 receptor (read-out: Human GLP-2R agonist cAMP pEC50 (converted)). In addition, the share remaining at 0.25 h in data set [3] was 24.5%; in data set [2] (FaSSIF pH 6.5 with 10 mg/ml pancreatin, t = 15 mins), 40.7%.

Source of the values: US20240270809A1, “ORAL GLP RECEPTOR AGONISTS” (priority 2020, published 2024).
